In the NIST ThermoML archive (doi:10.1016/j.jct.2018.08.013):
Where “and” joins values, the source holds several entries; their conditions need not be identical. Equal entries are not always repeated.

Columns and labels:
[1] = xn = mol fraction of the nth substance listed; conditions: 298 K; 100 kPa; Crystal of intercomponent compound 1; X-ray diffraction; x2 = 0.486
[2] = specific heat capacity at constant pressure; xn = mol fraction of the nth substance listed; conditions: 100 kPa, Crystal of intercomponent compound 1, relaxation calorimetry, x2 = 0.486

[Te] [tellurium] + [Ga]
Conditions | mass density [kg/m3]
[1] | 5448

[2]
Conditions | specific heat capacity
14.14 K | 12.49 J/K/kg
14.15 K | 12.53 J/K/kg
16.16 K | 17.22 J/K/kg
16.18 K | 17.24 J/K/kg
18.17 K | 22.39 J/K/kg and 22.38 J/K/kg
18.18 K | 22.43 J/K/kg
20.18 K | 27.78 J/K/kg
20.19 K | 27.77 J/K/kg
20.2 K | 27.79 J/K/kg
22.21 K | 33.2 J/K/kg
22.22 K | 33.22 J/K/kg
24.22 K | 38.74 J/K/kg
24.23 K | 38.79 J/K/kg
26.24 K | 44.36 J/K/kg and 44.33 J/K/kg and 44.32 J/K/kg
28.25 K | 49.69 J/K/kg
28.26 K | 49.67 J/K/kg
30.27 K | 54.94 J/K/kg
30.29 K | 54.99 J/K/kg
35.31 K | 68.01 J/K/kg
35.32 K | 68.01 J/K/kg
35.33 K | 68.06 J/K/kg
40.35 K | 80.38 J/K/kg
40.36 K | 80.53 J/K/kg and 80.38 J/K/kg
45.39 K | 92.13 J/K/kg
45.41 K | 91.88 J/K/kg
50.41 K | 103.44 J/K/kg
50.43 K | 103.49 J/K/kg
50.46 K | 103.13 J/K/kg
55.45 K | 113.77 J/K/kg
55.46 K | 113.98 J/K/kg
55.5 K | 113.47 J/K/kg
60.48 K | 123.56 J/K/kg
60.5 K | 123.56 J/K/kg
60.52 K | 123.05 J/K/kg
65.51 K | 133.13 J/K/kg
65.54 K | 132.63 J/K/kg
65.55 K | 133.08 J/K/kg
70.55 K | 141.95 J/K/kg
70.56 K | 141.34 J/K/kg
70.6 K | 141.7 J/K/kg
75.58 K | 149.91 J/K/kg
75.59 K | 149.2 J/K/kg
75.64 K | 149.81 J/K/kg
80.61 K | 157.76 J/K/kg
80.63 K | 157.11 J/K/kg
80.67 K | 157.61 J/K/kg
85.63 K | 164.86 J/K/kg
85.64 K | 164.2 J/K/kg
85.72 K | 164.66 J/K/kg
90.68 K | 171.5 J/K/kg and 170.94 J/K/kg
90.75 K | 171.14 J/K/kg
95.71 K | 177.22 J/K/kg and 176.31 J/K/kg
95.78 K | 176.62 J/K/kg
100.78 K | 185.08 J/K/kg
100.82 K | 184.52 J/K/kg
100.86 K | 184.88 J/K/kg
105.73 K | 192.73 J/K/kg
105.87 K | 191.31 J/K/kg and 192.07 J/K/kg
113.71 K | 198.86 J/K/kg
113.79 K | 197.4 J/K/kg
113.83 K | 197.65 J/K/kg
121.68 K | 205.1 J/K/kg
121.71 K | 204.14 J/K/kg
121.77 K | 203.73 J/K/kg
129.62 K | 209.51 J/K/kg
129.64 K | 209.91 J/K/kg
129.7 K | 208.39 J/K/kg
137.55 K | 213.76 J/K/kg
137.59 K | 213.56 J/K/kg
137.61 K | 212.24 J/K/kg
145.48 K | 218.93 J/K/kg
145.53 K | 218.27 J/K/kg
145.54 K | 217.36 J/K/kg
153.41 K | 222.38 J/K/kg
153.42 K | 222.23 J/K/kg
153.44 K | 222.08 J/K/kg
161.35 K | 224.41 J/K/kg and 224.26 J/K/kg
161.36 K | 224.31 J/K/kg
169.28 K | 227.5 J/K/kg and 227.09 J/K/kg
169.3 K | 227.04 J/K/kg
177.2 K | 229.17 J/K/kg and 228.87 J/K/kg
177.22 K | 228.92 J/K/kg
185.1 K | 230.89 J/K/kg
185.14 K | 230.79 J/K/kg
185.15 K | 230.59 J/K/kg
193.03 K | 233.63 J/K/kg
193.06 K | 233.38 J/K/kg
193.08 K | 233.43 J/K/kg
200.95 K | 233.83 J/K/kg
200.99 K | 233.88 J/K/kg
201 K | 233.68 J/K/kg
201.42 K | 236.77 J/K/kg
201.44 K | 236.67 J/K/kg
201.53 K | 234.69 J/K/kg
206.43 K | 237.94 J/K/kg
206.46 K | 237.84 J/K/kg
206.54 K | 236.01 J/K/kg
208.87 K | 236.16 J/K/kg
208.91 K | 236.52 J/K/kg
208.92 K | 236.37 J/K/kg
211.46 K | 238.9 J/K/kg
211.47 K | 238.9 J/K/kg
211.55 K | 236.98 J/K/kg
216.49 K | 239.91 J/K/kg
216.55 K | 238.55 J/K/kg
216.78 K | 238.34 J/K/kg
216.82 K | 238.39 J/K/kg
216.83 K | 238.19 J/K/kg
221.51 K | 241.18 J/K/kg and 241.33 J/K/kg and 241.13 J/K/kg
221.53 K | 241.03 J/K/kg
221.59 K | 239.61 J/K/kg
224.71 K | 241.13 J/K/kg
224.75 K | 241.28 J/K/kg
224.76 K | 240.98 J/K/kg
225.58 K | 241.79 J/K/kg
225.61 K | 241.84 J/K/kg
226.54 K | 242.25 J/K/kg and 242.35 J/K/kg
226.61 K | 240.73 J/K/kg
229.65 K | 241.89 J/K/kg
229.68 K | 241.44 J/K/kg
231.54 K | 243.26 J/K/kg
231.76 K | 241.44 J/K/kg
232.62 K | 240.42 J/K/kg
232.68 K | 239.97 J/K/kg and 240.47 J/K/kg
233.72 K | 242.04 J/K/kg
233.75 K | 241.94 J/K/kg
236.76 K | 242.3 J/K/kg
237.69 K | 243.11 J/K/kg
237.73 K | 242.45 J/K/kg
240.54 K | 241.54 J/K/kg
240.6 K | 241.28 J/K/kg and 241.49 J/K/kg
